Data from patent publication US7504508B2, “PGD2 receptor antagonists for the treatment of inflammatory diseases” (Millennium Pharmaceuticals, Inc., priority 2002, dated 2009).

Target: T1, cloned human CRTH2 receptor (Homo sapiens, UniProt Q9Y5Y4)
T1 construct: purchased Biosignal; host or cells: HEK-293 cells stably expressing human CRTH2 and G-alpha-16 (membranes)
T1 sequence (Q9Y5Y4 1-395): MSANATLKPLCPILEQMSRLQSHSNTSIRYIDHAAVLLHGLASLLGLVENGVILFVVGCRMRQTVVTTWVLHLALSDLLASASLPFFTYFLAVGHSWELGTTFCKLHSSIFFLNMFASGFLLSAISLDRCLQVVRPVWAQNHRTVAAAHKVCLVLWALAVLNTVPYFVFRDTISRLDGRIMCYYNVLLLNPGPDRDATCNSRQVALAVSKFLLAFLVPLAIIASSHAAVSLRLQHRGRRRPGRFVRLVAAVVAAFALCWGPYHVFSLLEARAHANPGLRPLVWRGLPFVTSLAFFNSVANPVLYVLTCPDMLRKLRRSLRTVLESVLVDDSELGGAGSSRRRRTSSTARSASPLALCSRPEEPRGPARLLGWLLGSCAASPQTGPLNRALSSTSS
Test: Radioligand membrane binding assay: inhibition of [3H] PGD2 binding to CRTH2 (Scintillation Proximity Assay)
Details: inhibition of [3H] PGD2 binding to membranes of HEK-293 cells stably expressing human CRTH2; SPA; 10 point curve from 10 μM; room temperature, approximately 2 hours
Description: This radioligand membrane binding assay evaluates the ability of compounds to inhibit [^3H] Prostaglandin D2 (PGD2) binding to the cloned human CRTH2 receptor stably expressed in HEK-293 cells (expressing human CRTh2 receptor and α subunit or the heteronimeric G protein 16 were prepared by Biosignal Company) using Scintillation Proximity Assay.
A binding buffer containing 50 mM Tris-HCl (pH 7.5), 5 mM MgCl2 and 1 mM EDTA was prepared immediately prior to performing the assay. A bead/membrane solution at twice the final assay concentration comprising membranes (membranes bought from Biosignal) from the HEK-293 cells cloned to express CRTH2 receptor bound to and [3H] PGD2 at twotimes the final assay concentration were prepared and stored on ice before adding to wells. Cold PGD2 at twenty times the final assay concentration was prepared and stored on ice before adding to wells defining non-specific binding (NSB) corning plates #3653 were used for this assay.
10 mM stock concentrations of compounds in 100% DMSO were prepared and stored at room temperature. A 10 point concentration response curve was then constructed for each compound, starting at 10 μM (final assay concentration). The compounds were prepared at 40 times final assay concentrations with nine consequent-3-fold dilutions.
0.1 μl of each concentration of compound were added to the appropriate well of the 384 plate and 2 μl of cold PGD2 was added into the wells defining NSB. 20 μl of [^3H] PGD2 and then 20 μl of 2× of bead/membrane solution were then added to each well.
The plates were allowed to incubate at room temperature for approximately 2 hours and then counted on Packard Topcount using SPA tritium protocol for 1 minute/well.
The percent inhibition of PGD2 binding (PGD2 used at the KD value or lower) to the HEK-293 cell membranes was determined, the assay was always run as duplicate for n=1 for a total of n=2.

| Ki | SMILES |
| --- | --- |
| < 10 µM | CC(=O)N(c1ccccc1)[C@@H]1C[C@H](C)N(C(=O)c2sc(-c3ccccc3)nc2C)c2ccccc21 (racemic) [Compound A-16, (±)-Cis-N-[2-methyl-1-(4-methyl-2-phenyl-thiazole-5-carbonyl)-1,2,3,4-tetrahydro-quinolin-4-yl]-N-phenyl-acetamide] |
| < 10 µM | C[C@H]1C[C@@H](N(C(=O)CCc2ccccc2)c2ccccc2)c2ccccc2N1C(=O)c1ccc(F)cc1 (racemic) [Compound A-73, (±)-Cis-N-[1-(4-fluoro-benzoyl)-2-methyl-1,2,3,4-tetrahydro-quinolin-4-yl]-3,N-diphenyl-propionamide] |
| < 10 µM | CCC(=O)N(c1ccccc1)C1CC(C)N(C(=O)C2CN(CC)CCO2)c2ccccc21 (racemic) [Compound A-82, (±)-Cis-N-[1-(4-Ethyl-morpholine-2-carbonyl)-2-methyl-1,2,3,4-tetrahydro-quinolin-4-yl]-N-phenyl-propionamide] |
| < 60 µM | COc1cccc(C(=O)N2c3ccccc3[C@@H](N(C(C)=O)c3ccccc3)C[C@@H]2C)c1 (racemic) [Compound A-124, (±)-Trans-N-[1-(3-methoxy-benzoyl)-2-methyl-1,2,3,4-tetrahydro-quinolin-4-yl]-N-phenyl-acetamide] |
| < 10 µM | CC(=O)N(c1ccccc1)[C@@H]1C[C@H](C)N(C(=O)c2cccn2C)c2ccccc21 (racemic) [Compound A-130, (±)-Cis-N-[2-methyl-1-(1-methyl-1H-pyrrole-2-carbonyl)-1,2,3,4-tetrahydro-quinolin-4-yl]-N-phenyl-acetamide] |
| < 10 µM | CCC(=O)N(c1ccccc1)[C@@H]1C[C@H](C)N(C(=O)c2ccnc(C)c2)c2ccccc21 (racemic) [Compound A-131, (±)-Cis-N-[2-methyl-1-(2-methyl-pyridine-4-carbonyl)-1,2,3,4-tetrahydro-quinolin-4-yl]-N-phenyl-propionamide] |
| < 10 µM | CCC(=O)N(c1ccccc1)[C@@H]1C[C@H](C)N(C(=O)c2ccc(-c3ccc(C(F)(F)F)cc3Cl)o2)c2ccccc21 (racemic) [Compound A-143, (±)-Cis-N-{1-[5-(2-chloro-4-trifluoromethyl-phenyl)-furan-2-carbonyl]-2-methyl-1,2,3,4-tetrahydro-quinolin-4-yl}-N-phenyl-propionamide] |
| < 10 µM | CCC(=O)N(c1ccccc1)[C@@H]1C[C@H](C)N(C(=O)c2ccc(-c3ccc([N+](=O)[O-])cc3)o2)c2ccccc21 (racemic) [Compound A-144, (±)-Cis-N-{2-methyl-1-[5-(4-nitro-phenyl)-furan-2-carbonyl]-1,2,3,4-tetrahydro-quinolin-4-yl}-N-phenyl-propionamide] |
| < 10 µM | CC(=O)N(c1ccccc1)[C@@H]1C[C@H](C)N(C(=O)c2ccccc2C)c2ccccc21 (racemic) [Compound A-153, (±)-Cis-N-[2-methyl-1-(2-methyl-benzoyl)-1,2,3,4-tetrahydro-quinolin-4-yl]-N-phenyl-acetamide] |
| < 10 µM | CC(=O)N(c1ccccc1)[C@@H]1C[C@H](C)N(C(=O)C2CCCCC2)c2ccccc21 (racemic) [Compound A-157, (±)-Cis-N-(1-cyclohexanecarbonyl-2-methyl-1,2,3,4-tetrahydro-quinolin-4-yl)-N-phenyl-acetamide] |

Further lines, the molecule ahead of its results:

| SMILES | Ki |
| --- | --- |
| COc1cccc(C(=O)N2c3ccccc3[C@H](N(C(=O)c3ccc(Cl)cc3)c3ccccc3)C[C@@H]2C)c1 (racemic) [Compound A-3, (±)-Cis-4-chloro-N-[1-(3-methoxy-benzoyl)-2-methyl-1,2,3,4-tetrahydro-quinolin-4-yl]-N-phenyl-benzamide] | < 10 µM |
| CC(=O)N(c1ccccc1)[C@@H]1C[C@H](C)N(C(=O)c2snnc2C)c2ccccc21 (racemic) [Compound A-17, (±)-Cis-N-[2-methyl-1-(4-methyl-[1,2,3]thiadiazole-5-carbonyl)-1,2,3,4-tetrahydro-quinolin-4-yl]-N-phenyl-acetamide] | < 10 µM |
| CC(=O)N(c1ccccc1)[C@@H]1C[C@H](C)N(C(=O)c2cc(F)c(F)c(F)c2)c2ccccc21 (racemic) [Compound A-20, (±)-Cis-N-[2-methyl-1-(3,4,5-trifluoro-benzoyl)-1,2,3,4-tetrahydro-quinolin-4-yl]-N-phenyl-acetamide] | < 10 µM |
| CC(=O)N(c1ccccc1)[C@@H]1C[C@H](C)N(C(=O)c2c(F)cc(F)cc2F)c2ccccc21 (racemic) [Compound A-24, (±)-Cis-N-[2-methyl-1-(2,4,6-trifluoro-benzoyl)-1,2,3,4-tetrahydro-quinolin-4-yl]-N-phenyl-acetamide] | < 10 µM |
| CCC(=O)N(c1ccccc1)[C@@H]1C[C@H](C)N(C(=O)c2cccc(Cl)c2)c2ccccc21 (racemic) [Compound A-35, (±)-Cis-N-[1-(3-chloro-benzoyl)-2-methyl-1,2,3,4-tetrahydro-quinolin-4-yl]-N-phenyl-propionamide] | < 10 µM |
| CC(=O)N(C)CC(=O)N(c1ccccc1)[C@@H]1C[C@H](C)N(C(=O)c2ccc(F)cc2)c2ccccc21 (racemic) [Compound A-49, (±)-Cis-2-(acetyl-methyl-amino)-N-[1-(4-fluoro-benzoyl)-2-methyl-1,2,3,4-tetrahydro-quinolin-4-yl]-N-phenyl-acetamide] | < 10 µM |
| COc1cccc(C(=O)N2c3ccccc3[C@H](N(C(=O)C3CCCCC3)c3ccccc3)C[C@@H]2C)c1 (racemic) [Compound A-54, (±)-Cis-cyclohexanecarboxylic acid [1-(3-methoxy-benzoyl)-2-methyl-1,2,3,4-tetrahydro-quinolin-4-yl]-phenylamide] | < 10 µM |
| COc1cccc(C(=O)N2c3ccccc3[C@H](N(C(=O)c3ccno3)c3ccccc3)C[C@@H]2C)c1 (racemic) [Compound A-55, (±)-Cis-isoxazole-5-carboxylic acid [1-(3-methoxy-benzoyl)-2-methyl-1,2,3,4-tetrahydro-quinolin-4-yl]-phenyl-amide] | < 10 µM |
| CC(=O)N(c1ccccc1)[C@@H]1C[C@H](C)N(C(=O)c2sc(C)nc2C)c2ccccc21 (racemic) [Compound A-67, (±)-Cis-N-[1-(2,4-dimethyl-thiazole-5-carbonyl)-2-methyl-1,2,3,4-tetrahydro-quinolin-4-yl]-N-phenyl-acetamide] | < 10 µM |
| C[C@H]1C[C@@H](N(C(=O)COc2ccccc2)c2ccccc2)c2ccccc2N1C(=O)c1ccc(F)cc1 (racemic) [Compound A-72, (±)-Cis-N-[1-(4-fluoro-benzoyl)-2-methyl-1,2,3,4-tetrahydro-quinolin-4-yl]-2-phenoxy-N-phenyl-acetamide] | < 10 µM |
| CCC(=O)N(c1ccccc1)C1CC(C)N(C(=O)C2CN(Cc3ccccc3)CCO2)c2ccccc21 (racemic) [Compound A-81, (±)-Cis-N-[1-(4-benzyl-morpholine-2-carbonyl)-2-methyl-1,2,3,4-tetrahydro-quinolin-4-yl]-N-phenyl-propionamide] | < 10 µM |
| CC(C)CC(=O)N(c1ccccc1)[C@@H]1C[C@H](C)N(C(=O)c2ccc(F)cc2)c2ccccc21 (racemic) [Compound A-132, (±)-Cis-N-[1-(4-fluoro-benzoyl)-2-methyl-1,2,3,4-tetrahydro-quinolin-4-yl]-3-methyl-N-phenyl-butyramide] | < 10 µM |
| C=CCC(=O)N(c1ccccc1)[C@@H]1C[C@H](C)N(C(=O)c2ccc(F)cc2)c2ccccc21 (racemic) [Compound A-147, (±)-Cis-but-3-enoic acid [1-(4-fluoro-benzoyl)-2-methyl-1,2,3,4-tetrahydro-quinolin-4-yl]-phenyl-amide] | < 10 µM |
| CC(=O)N(c1ccccc1)[C@@H]1C[C@H](C)N(C(=O)c2c(C)noc2C)c2ccccc21 (racemic) [Compound A-154, (±)-Cis-N-[1-(3,5-dimethyl-isoxazole-4-carbonyl)-2-methyl-1,2,3,4-tetrahydro-quinolin-4-yl]-N-phenyl-acetamide] | < 60 µM |
| CC(=O)N(c1ccccc1)[C@@H]1C[C@H](C)N(C(=O)c2cc(C)nn2C)c2ccccc21 (racemic) [Compound A-159, (±)-Cis-N-[1-(2,5-dimethyl-2H-pyrazole-3-carbonyl)-2-methyl-1,2,3,4-tetrahydro-quinolin-4-yl]-N-phenyl-acetamide] | < 10 µM |
